“Also recorded” adds a separate entry of the source.
Columns and labels:
fresh lettuce midribs = settings: literature treatments; cited from earlier work
PPO = settings: role: substrate; lettuce tissues; cited from earlier work
[1] = naringenin; in vitro for lettuce; cited from earlier work
[2] = test system: iceberg and Romaine lettuce midribs; experiment: Visual (subjective) pink rib development in wounded, immersed lettuce midribs stored at 5° C.; type: in vivo; settings: for reduction of pink rib severity: naringenin (1.8 mM) and serotonin, reason for not imaging
Description: Six preliminary experiments were performed to determine treatment conditions for the three final experiments reported here. It was determined that the method developed by Cantwell (2016) induced pink rib discoloration in lettuce midribs during storage at 5° C. via mimicking mechanical damage and was, therefore, selected for use in all preliminary and final tests. […] Concentrations evaluated were: L-cysteine (0.4, 0.8, 2.1, 4.1, 8.3 mM), naringenin (0.2, 0.4, 0.9, 1.8, 3.7 mM), serotonin (2.8, 5.7 mM), and melatonin (0.2, 0.4, 1.1, 2.2, 4.3 mM) (data not presented). […] Therefore, this study employed the one or two concentrations for each compound with the greatest potential efficacy in three independent tests, Test 1 to 3 (Table 1).
For Test 1, the evaluations for pink rib development, protein quantification, and enzyme activity were conducted with Romaine and iceberg lettuce heads (36 heads per type; cultivars unknown) purchased (February 2020) upon arrival at a local grocery store in Gainesville, FL, and immediately transported to the Postharvest Horticulture Laboratory at the University of Florida in Gainesville, FL. For Test 2, metabolite extraction and detection were conducted with commercially grown, harvested, and cooled Romaine (‘Tall Guzmaine’) and iceberg (‘Chosen’) lettuce (December 2020) grown in Belle Glade, FL. For Test 3, untargeted metabolomics was performed using commercially grown, harvested, and cooled Romaine (‘Manatee’) lettuce grown in Belle Glade, FL (April 2021). To keep the lettuce head samples cool while preventing freeze damage during transport, a 3- to 6-inch layer of crushed ice was placed on the bottom of each 114-L cooler. A piece of waxed, corrugated fiberboard was placed on top of the ice prior to packing with the lettuce samples for transport the same day to the Postharvest Horticulture Laboratory in Gainesville (approximately 4 h distant).
In all tests, experimental setup began immediately upon arrival to the laboratory. 90 outer leaves were randomly selected from 18 to 22 lettuce heads that met commercial and damage-free quality standards. A midrib segment (12.5 cm) was excised from the center of each leaf and excess leaf blade tissue was trimmed parallel to the midrib. This procedure was adapted from the wounding procedure of Cantwell (2016). Each midrib was then partially sliced transversally at 1.3-cm increments along the midrib. Midribs (n=15) were immediately immersed for 30 s in one of five treatment solutions: deionized water (wounded control), L-cysteine (4.1 mM), naringenin (1.8 mM) with 20% dimethyl sulfoxide (DMSO), serotonin (2.8 or 5.7 mM) or melatonin (4.3 mM) with 0.50% DMSO. Immediately following immersion, the midribs for each treatment were patted dry using paper towels and placed (n=5) in a breathable, high-density polyethylene bag (n=3) (Narrow Profile Produce Bags [14×18 inches] Model No. S-19156, Uline®, Pleasant Prairie, WI). Unwounded control midribs were stored in the same manner. To allow for direct comparison, each cut site on each midrib was assigned an initial discoloration value on day 1 based on the coloration of the rib. Samples were stored at 5° C. with 95-98% relative humidity (RH) for 5 d, simulating commercial storage.
All chemicals were of laboratory or reagent grade from Alfa Aesar (Thermo Fisher Scientific, Ward Hill, MA, USA) or Phyto Technology Laboratories (Shawnee Mission, KS, USA). L-cysteine (4.1 mM) solution was prepared by dissolving […] in 100 ml deionized water. Naringenin (1.8 mM) solution was prepared by dissolving […] in 20 mL of DMSO and diluting to a 100 mL volume with deionized water. A stock solution of serotonin (5.7 mM) was prepared by dissolving 100 mg of serotonin in 100 ml of deionized water; a second solution of serotonin (2.8 mM) was prepared by diluting the stock solution two-fold with deionized water. […]

PAL = settings: naringenin; cited from earlier work
apple and pear discs = settings: serotonin 1 mM, 4° C., cited from earlier work

In the case of `CCCCCCc1ccc(O)cc1O` [4-hexylresorcinol], the “effectiveness in reducing pink rib discoloration” value (fresh lettuce midribs) is given as “slightly effective or completely ineffective”.

For `O=C(O)c1ccc(O)cc1` [p-hydroxybenzoic acid], the “effectiveness in reducing pink rib discoloration” value (fresh lettuce midribs) is listed as “slightly effective or completely ineffective”.

In the case of `O=C(/C=C/c1ccc(O)c(O)c1)O[C@@H]1C[C@](O)(C(=O)O)C[C@@H](O)[C@H]1O` [chlorogenic acid], the “specificity to PPO” value (PPO) is listed as “greatest specificity to PPO”.

In the case of `N[C@@H](CCC(=O)N[C@@H](CS)C(=O)NCC(=O)O)C(=O)O` [glutathione], the “effectiveness in reducing pink rib discoloration” value (fresh lettuce midribs) is given as “slightly effective or completely ineffective”.

For `C=C` [ethylene], the “effectiveness in reducing pink rib discoloration” value (fresh lettuce midribs) is listed as “slightly effective or completely ineffective”.

For `O=C(O)CC(O)(CC(=O)O)C(=O)O` [citric acid], the “effectiveness in reducing pink rib discoloration” value (fresh lettuce midribs) is given as “slightly effective or completely ineffective”.

For `O=C1C[C@@H](c2ccc(O)cc2)Oc2cc(O)cc(O)c21` [naringenin], the “antioxidant capacity (FRAP)” value [1] is given as “increase in antioxidant capacity”, the “pink rib severity (visual rating)” value ([2]; iceberg, naringenin 1.8 mM, 5 d at 5° C.) is given as “moderately severe (4=moderately severe)” and the “pink rib severity (visual rating)” value ([2]; iceberg, naringenin immersion up to 3.7 mM, 5 d at 5° C.) is given as “moderately severe (4=moderately severe)”. For the same compound, the “reduction of pink rib severity” value [2] was “unsuccessful reduction of pink rib severity; also recorded: equally unsuccessful”, the “effect on pink rib” value ([2]; naringenin up to 3.7 mM, 5 d at 5° C.) was “did not successfully reduce pink rib” and the “PAL activity and subsequent development of phenylpropanoids” value (PAL) was “represses PAL activity and subsequent development of phenylpropanoids”.

In the case of `O=C(O)CN(CCN(CC(=O)O)CC(=O)O)CC(=O)O` [ethylenediaminetetracetic acid (EDTA), ethylenediaminetetracetic acid], the “effectiveness in reducing pink rib discoloration” value (fresh lettuce midribs) is given as “slightly effective or completely ineffective”.

In the case of `[Cl-].[Na+]` [NaCl], the “effectiveness in reducing pink rib discoloration” value (fresh lettuce midribs) is listed as “slightly effective or completely ineffective”.

For `CC1=CC1` [1-methylcyclopropene], the “effectiveness in reducing pink rib discoloration” value (fresh lettuce midribs) is given as “slightly effective or completely ineffective”.

With `NCCc1c[nH]c2ccc(O)cc12` [serotonin] the “pink rib severity (visual rating)” value ([2]; Romaine, serotonin 2.8 or 5.7 mM, 5 d at 5° C.) was “moderately severe (4=moderately severe)”, the “pink rib severity (visual rating)” value ([2]; iceberg, serotonin 2.8 or 5.7 mM, 5 d at 5° C.) was “moderate (3=moderate)” and the “reduction of pink rib severity” value [2] was “unsuccessful reduction of pink rib severity”. The “effect on pink rib development” value ([2]; serotonin, iceberg and Romaine, 5 d at 5° C.) was “did not reduce pink rib development in either lettuce type”, the “extension of bright appearance” value (apple and pear discs; 30-min submersion) was “up to 6 months” and the “browning inhibition compared with ascorbic acid” value (apple and pear discs; 30 min) was “more effective than ascorbic acid”. For the same compound, the “duration of browning inhibition” value (apple and pear discs; 30 min) was “up to 24 h”.

Reference: US20260314597A1, “A NOVEL APPROACH TO INTERFERE IN THE PHENYLPROPANOID BIOSYNTHETIC PATHWAY TO REDUCE PINK-RIB DISORDER IN FRESH LETTUCE” (University of Florida Research Foundation, Inc., priority 2022, published 2026)
